Article PMC3772838, “Preclinical Development of a Novel Class of CXCR4 Antagonist Impairing Solid Tumors Growth and Metastases” (PLoS ONE, 2013)
Like-named read-outs stand apart in the source and are kept apart here. Bridges are numbered along the chain shown (N, C = ends). Where no end group is shown, it is not given here.

Columns and labels:
[1] = tested on: CXCR3; assay: Anti-CXCR3 antibody (clone 1C6/CXCR3) binding in CXCR3 overexpressing cells; design: species or system human; settings: COLO205 cells; peptides 10 µM, CXCL11 100 nM, 30 min pre-incubation; Figure S3
Description: [The procedure below names another target; the source says it served here with some conditions changed.] CXCR4 binding was evaluated as previously described. Briefly 5×10^5 CCRF–CEM cells were pre-incubated with 10 µM peptides or AMD3100 in binding buffer (PBS 1× plus 0.2% BSA and 0.1% NaN3) for 30 minutes at 37°C, 5% CO2 and then labeled for 30 minutes with anti-CXCR4 PE-antibody (FAB170P, clone 12G5, R&D Systems, Minneapolis, MN, USA). The cells were analyzed by FACS Canto II cytofluorometer (Becton Dickinson Immunocytometry Systems, Mountain View, CA, USA).
Fluo-3AM and Pluronic acid were added to each sample to increase Fluo-3AM solubility and improve dye loading into the cells. (TIF) Click here for additional data file.

[2] = tested on: human cancer cell lines (SN12C, RXF393, A498 and PES43); assay: Cytotoxicity on human cancer cell lines; assay type: cell-based
[3] = tested on: PES43 human melanoma cells; assay: CXCL12-mediated wound closure assay; assay type: cell-based; settings: 6 hours post-wounding
Description: Migration was assayed in 24-well Transwell chambers (Corning Inc., Corning, NY) using inserts with an 8-µm pore membrane. Membranes were precoated with collagen (human collagen type I/III) and fibronectin (20 µg/mL each). […] After 16 h incubation, cells on the upper surface of the filter were removed using a cotton wool swab; migration of cells in migration media alone was compared with migration in media containing CXCL12. The cells were counted in ten different fields (original magnification ×40). The migration index was defined as the ratio between migrating cells in the experimental group and migrated cells in the control group. For the wound closure assay, tested cells were allowed to reach confluence in six-well plates containing serum-depleted growth medium and scratched with pipette tips to make wounds. The wound closure was observed microscopically 6 hours post-wounding (OKO Time Lapse).
Experiments were conducted using PES43 cells. (A) Migration was assayed in 24-well Transwell chambers using inserts with 8-µm pore membrane. […] Migrated cells on the lower surface were fixed, stained with H&E and counted microscopically. The results are expressed as the migration index relative to migration in presence of BSA alone. […] Images were acquired with OKO Time Lapse. […] PES43 cells were serum-starved and incubated with CXCL12 (100 ng/ml) alone or in presence of AMD3100/peptides. Each peptide was tested in at least three different experiments. Double tailed T-Test was used for statistical analyses. Differences were considered significant at P<0.05 compared to control.

[4] = tested on: B16-CXCR4 murine melanoma cells; assay: B16-CXCR4 melanoma lung metastases model; assay type: in vivo, C57BL/6 mice; settings: cells pre-treated 30 min with 10 µM, IP once a day for 10 days, peptides 2 mg/kg, AMD3100 1.25 mg/kg; for number of lung metastases: control 8.4±3.49, average
Description: All mice were obtained from Harlan (Bar Harbor, ME, USA) and their care was in accord with institutional guidelines. Twenty-five 6-8-week-old female C57BL/6 mice were inoculated into the tail vein with 5×10^5 B16–CXCR4 cells pre-treated for 30 minutes with peptide S (10 µM), peptide R (10 µM), peptide I (10 µM), or AMD3100 (10 µM). Six hours later intraperitoneal (IP) treatment started with AMD3100 (1.25 mg/kg) or each peptide (2 mg/kg) in sterile PBS once a day for 10 days. A week later the mice were sacrificed. The experiment was repeated three times. The lung metastases assay was also conducted with K7M2 murine osteosarcoma cells. Twenty-five 6-8-week-old female Balb/c mice were injected via tail vein with 2.5×10^5 K7M2 cells pre-treated for 30 minutes with AMD3100 (10 µM), peptide S (10 µM), peptide R (10 µM), peptide I (10 µM) and animals were treated IP daily for 15 days with 2.5 mg/kg for AMD3100 group and 10 mg/kg for each peptide groups. A week later the mice were sacrificed. Xenograft tumor growth was evaluated using pEGFP-SN12C cells in exponential growth phase subcutaneously injected into the right flank of twenty-five 6-8-week-old female CD1 nude mice. 2×10^6 SN12C-pEGFP were injected in the right flank of each mouse and treated with AMD3100 (1.25 mg/kg) and peptides (2 mg/kg) for 10 days ip. A week later mice were euthanized and tumor volume evaluated through Leica MacroFluo fluorescence stereomicroscope (Leica microsystem, Houston, TX). The experiment was repeated three times. The Istituto Nazionale per lo Studio e la Cura dei Tumori, Fondazione Giovanni Pascale Independent Etical Comettee approved the study (CEI/600/12).
(A) B16-CXCR4 tumor cells pre-treated for 30 minutes with AMD3100 (10 µM), peptide R (10 µM), peptide I (10 µM), or peptide S (10 µM) were inoculated into the tail vein of C57/B female mice and the mice were further treated intraperitoneally for 10 days with 1.25 mg/kg AMD3100, or 2 mg/kg peptide R, peptide I or peptide S. Gross examination of representative lungs; (B) Graphical representation of the number of lung metastases in treated mice. Double tailed T-Test was used for statistical analyses. The experiments were repeated three times.

[5] = tested on: CCRF-CEM human T-Leukemia cells; assay: CCRF-CEM cell migration; assay type: cell-based; settings: Figure S4
Description: [The procedure below names another cell line; the source lists this cell line under the same test.] Migration was assayed in 24-well Transwell chambers (Corning Inc., Corning, NY) using inserts with an 8-µm pore membrane. Membranes were precoated with collagen (human collagen type I/III) and fibronectin (20 µg/mL each). PES43 cells were placed in the upper chamber (2.5×10^5 cells/well) in IMDM containing 1% BSA (migration media) in the presence of AMD3100 or peptides; 100 ng/mL CXCL12 was added to the lower chamber. After 16 h incubation, cells on the upper surface of the filter were removed using a cotton wool swab; migration of cells in migration media alone was compared with migration in media containing CXCL12. The cells were counted in ten different fields (original magnification ×40). The migration index was defined as the ratio between migrating cells in the experimental group and migrated cells in the control group. For the wound closure assay, tested cells were allowed to reach confluence in six-well plates containing serum-depleted growth medium and scratched with pipette tips to make wounds. The wound closure was observed microscopically 6 hours post-wounding (OKO Time Lapse).
(TIF) Click here for additional data file.

Arg-Ala-[Cys-Arg-His-Trp-Cys] (RACRHWC; disulfide 3-7) [Peptide S, CXCL12-mimetic disulfide-cyclic peptide]
binding to CXCR3 (anti-CXCR3 antibody) [1]: unaffected | cytotoxicity [2]: no toxicity | CXCL12-mediated wound healing [3]: delayed | number of lung metastases [4]: 2.96±2.39

Arg-Ala-[Cys-Arg-Phe-Phe-Cys] (RACRFFC; disulfide 3-7) [Peptide R, CXCL12-mimetic disulfide-cyclic peptide]
binding to CXCR3 (anti-CXCR3 antibody) [1]: unaffected | CCRF-CEM migration [5]: inhibited CCRF-CEM human T-Leukemia cells migration in a dose-dependent manner | cytotoxicity [2]: no toxicity | CXCL12-mediated wound healing [3]: delayed | fold reduction of the number of lung metastases vs control [4]: 7 fold | number of lung metastases [4]: 1.2±1.4

[Cys-Trp-His-Arg-Cys] (CWHRC; disulfide 1-5) [Peptide I, v-MIP-II mimetic disulfide-cyclic peptide]
binding to CXCR3 (anti-CXCR3 antibody) [1]: unaffected | cytotoxicity ([2]; SN12C, RXF393, A498 and PES43, Figure S2): no toxicity | CXCL12-mediated wound healing [3]: delayed | fold reduction of the number of lung metastases vs control [4]: 41.5 fold | number of lung metastases [4]: 0.2±0.44
